Assay in all cases: relative viability (nuclei count vs DMSO), 5 days (fraction); higher = more cells survive
Compound in the assay “Shikonin + Lapatinib”: CC(C)=CC[C@@H](O)C1=CC(=O)c2c(O)ccc(O)c2C1=O [Shikonin] + CS(=O)(=O)CCNCc1ccc(-c2ccc3ncnc(Nc4ccc(OCc5cccc(F)c5)c(Cl)c4)c3c2)o1 [Lapatinib] (partner 2 µM)
The procedure, abridged: (§1)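 Dosing by pin tool came one day after lung cancer cell lines were seeded in 1536-well plates, using either one drug or a fixed anchor-drug dose plus five library-drug doses (not always all listed) in √10 steps. After 5 days, nuclei were counted on 4× images. Relative viability is treated-well nuclei count divided by vehicle-well nuclei count, and values are medians of duplicate plates.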

Compound in assay [1]: CC(C)N(CCCNC(=O)Nc1ccc(C(C)(C)C)cc1)C[C@H]1O[C@@H](n2ccc3c(N)ncnc32)[C@H](O)[C@@H]1O + CC(=O)c1c(C)c2cnc(Nc3ccc(N4CCNCC4)cn3)nc2n(C2CCCC2)c1=O [Palbociclib] (partner 0.5 µM)
Summed up: as §1

Compound in assay [2]: CC(C)N(CCCNC(=O)Nc1ccc(C(C)(C)C)cc1)C[C@H]1O[C@@H](n2ccc3c(N)ncnc32)[C@H](O)[C@@H]1O + CCNC(=O)c1noc(-c2cc(C(C)C)c(O)cc2O)c1-c1ccc(CN2CCOCC2)cc1 [Luminespib] (partner 0.01 µM)
Summed up:
as §1

Compound in assay [3]: CC(C)N(CCCNC(=O)Nc1ccc(C(C)(C)C)cc1)C[C@H]1O[C@@H](n2ccc3c(N)ncnc32)[C@H](O)[C@@H]1O + N=C(N)NC(=N)NCCc1ccccc1 [Phenformin] (partner 250 µM)
Summed up:
as §1

As to NCI-H1395, the relative viability with Shikonin + Lapatinib (first compound 0.01 µM) was found to be 0.924; with Shikonin + Lapatinib (first compound 0.1 µM) it was 1.26; in the assay with Shikonin + Lapatinib (first compound 0.3162 µM), 0.923; with Shikonin + Lapatinib (first compound 1 µM), 0.895; in assay [1] (first compound 0.08 µM) it was 0.587; in assay [1] (first compound 0.253 µM), 0.59. The relative viability in assay [1] (first compound 0.8 µM) is 0.651; in assay [1] (first compound 2.53 µM), 0.626; in assay [1] (first compound 8 µM), 0.625; in assay [2] (first compound 0.08 µM), 0.632; in assay [2] (first compound 0.253 µM) it was 0.734; in assay [2] (first compound 0.8 µM) it was 0.571. The relative viability in assay [2] (first compound 2.53 µM) came out at 0.884; in assay [2] (first compound 8 µM), 0.798; in assay [3] (first compound 0.08 µM) it was 0.433; in assay [3] (first compound 0.253 µM), 0.436; in assay [3] (first compound 0.8 µM) it was 0.43; in assay [3] (first compound 2.53 µM) it was 0.438. Besides, the relative viability in assay [3] (first compound 8 µM) amounted to 0.424.

With NCI-H358, the relative viability with Shikonin + Lapatinib (first compound 0.01 µM) stood at 0.374; with Shikonin + Lapatinib (first compound 0.1 µM), 0.53; with Shikonin + Lapatinib (first compound 0.3162 µM), 0.412; in the assay with Shikonin + Lapatinib (first compound 1 µM) it was 0.391; in assay [1] (first compound 0.08 µM), 0.121; in assay [1] (first compound 0.253 µM), 0.127. Besides, the relative viability was determined as 0.143 in assay [1] (first compound 0.8 µM); 0.135 in assay [1] (first compound 2.53 µM); 0.132 in assay [1] (first compound 8 µM); 0.441 in assay [2] (first compound 0.08 µM); 0.235 in assay [2] (first compound 0.253 µM); 0.384 in assay [2] (first compound 0.8 µM). Further, the relative viability was found to be 0.0174 in assay [2] (first compound 2.53 µM); 0.307 in assay [2] (first compound 8 µM); 0.291 in assay [3] (first compound 0.08 µM); 0.303 in assay [3] (first compound 0.253 µM); 0.383 in assay [3] (first compound 0.8 µM); 0.286 in assay [3] (first compound 2.53 µM). Moreover, the relative viability in assay [3] (first compound 8 µM) was 0.273.

For the cell line PC-3 [JPC-3], the relative viability in the assay with Shikonin + Lapatinib (first compound 0.01 µM) stood at 0.443; with Shikonin + Lapatinib (first compound 0.1 µM) it was 0.512; with Shikonin + Lapatinib (first compound 0.3162 µM), 0.479; with Shikonin + Lapatinib (first compound 1 µM), 0.543; in assay [1] (first compound 0.08 µM) it was 0.54; in assay [1] (first compound 0.253 µM) it was 0.53. In addition, the relative viability in assay [1] (first compound 2.53 µM) is 0.507; in assay [1] (first compound 8 µM), 0.487; in assay [2] (first compound 0.08 µM), 0.699; in assay [2] (first compound 0.253 µM), 0.704; in assay [2] (first compound 0.8 µM) it was 0.779; in assay [2] (first compound 2.53 µM), 0.71. Also, the relative viability stood at 0.683 in assay [2] (first compound 8 µM); 0.478 in assay [3] (first compound 0.08 µM); 0.491 in assay [3] (first compound 0.253 µM); 0.495 in assay [3] (first compound 0.8 µM); 0.451 in assay [3] (first compound 2.53 µM); 0.488 in assay [3] (first compound 8 µM).

With CAL-12T, the relative viability with Shikonin + Lapatinib (first compound 0.01 µM) turned out to be 0.636; in the assay with Shikonin + Lapatinib (first compound 0.1 µM) it was 0.632; with Shikonin + Lapatinib (first compound 0.3162 µM) it was 0.649; with Shikonin + Lapatinib (first compound 1 µM), 0.638; in assay [1] (first compound 0.08 µM) it was 0.418; in assay [1] (first compound 0.253 µM), 0.341. Further, the relative viability in assay [1] (first compound 0.8 µM) was found to be 0.488; in assay [1] (first compound 2.53 µM) it was 0.445; in assay [1] (first compound 8 µM) it was 0.38; in assay [2] (first compound 0.08 µM), 0.733; in assay [2] (first compound 0.253 µM), 0.365; in assay [2] (first compound 0.8 µM), 0.512. Further, the relative viability in assay [2] (first compound 2.53 µM) is 0.465; in assay [2] (first compound 8 µM), 0.423; in assay [3] (first compound 0.08 µM) it was 0.539; in assay [3] (first compound 0.253 µM), 0.597; in assay [3] (first compound 0.8 µM) it was 0.585; in assay [3] (first compound 2.53 µM) it was 0.56. For the same cell line, the relative viability in assay [3] (first compound 8 µM) came out at 0.489.

(Values after the supplement of paper PMC10307832.)
